Measured values reported in ChEMBL document CHEMBL5726216, “Derivatives and methods of treating hepatitis B infections” (2019).

Assay: BDNA-assay: HBV replication inhibition by the compounds of this invention could be determined in cells infected or transfected with HBV, or cells with stably integrated HBV, such as HepG2.2.15 cells (Sells et al. 1987). In this example, HepG2.2.15 cells were maintained in cell culture medium containing 10% fetal bovine serum (FBS), Geneticin, L-glutamine, penicillin and streptomycin. HepG2.2.15 cells could be seeded in 96-well plates at a density of 40,000 cells/well and be treated with serially diluted compounds at a final DMSO concentration of 0.5% either alone or in combination by adding drugs in a checker box format. Cells were incubated with compounds for three days, after which medium was removed and fresh medium containing compounds was added to cells and incubated for another three days. At day 6, supernatant was removed and treated with DNase at 37° C. for 60 minutes, followed by enzyme inactivation at 75° C. for 15 minutes. Encapsidated HBV DNA was released from the virions and covalently linked HBV polymerase by incubating in lysis buffer (Affymetrix QS0010) containing […] proteinase K at 50° C. for 40 minutes. HBV DNA was denatured by addition of 0.2 M NaOH and detected using a branched DNA (BDNA) QuantiGene assay kit according to manufacturer recommendation (Affymetrix). HBV DNA levels could also be quantified using qPCR, based on amplification of encapsidated HBV DNA extraction with QuickExtraction Solution (Epicentre Biotechnologies) and amplification of HBV DNA using HBV specific PCR probes that can hybridize to HBV DNA and a fluorescently labeled probe for quantitation. In addition, cell viability of HepG2.2.15 cells incubated with test compounds alone or in combination was determined by using CellTitre-Glo reagent according to the manufacturer protocol (Promega). The mean background signal from wells containing only culture medium was subtracted from all other samples, and percent inhibition at each compound concentration was calculated by normalizing to signals from HepG2.2.15 cells treated with 0.5% DMSO using equation E1.

Compound	EC50
CN(OC1CCOC1)C(=O)c1n[nH]c2c1CN(C(=O)Nc1cccc(Cl)c1)CC2 (stereo not given)	< 500 nM
CCCC(=O)c1n[nH]c2c1CN(C(=O)Nc1cccc(Cl)c1)CC2	< 100 nM
CN(OC1CCC1)C(=O)c1n[nH]c2c1CN(C(=O)Nc1cccc(Cl)c1)CC2	< 100 nM
CON(C(=O)c1n[nH]c2c1CN(C(=O)Nc1cccc(Cl)c1)CC2)C(C)C	< 500 nM
CCC(=O)c1n[nH]c2c1CN(C(=O)Nc1cccc(Cl)c1)CC2	< 500 nM
CCON(C)C(=O)c1n[nH]c2c1CN(C(=O)Nc1cccc(Cl)c1)CC2	< 100 nM
CN(C)N(C)C(=O)c1n[nH]c2c1CN(C(=O)Nc1cccc(Cl)c1)CC2	< 100 nM
CC(C)CON(C)C(=O)c1n[nH]c2c1CN(C(=O)Nc1cccc(Cl)c1)CC2	< 500 nM
O=C(Nc1cccc(Cl)c1)N1CCc2[nH]nc(C(=O)N3CC(O)CO3)c2C1 (stereo not given)	< 1000 nM
CC(C)ON(C)C(=O)c1n[nH]c2c1CN(C(=O)Nc1cccc(Cl)c1)CC2	< 100 nM
CON(C)C(=O)c1n[nH]c2c1CN(C(=O)Nc1cccc(Cl)c1)CC2	< 100 nM
CCCON(C)C(=O)c1n[nH]c2c1CN(C(=O)Nc1cccc(Cl)c1)CC2	< 500 nM
CN1CC(ON(C)C(=O)c2n[nH]c3c2CN(C(=O)Nc2cccc(Cl)c2)CC3)C1	< 500 nM
CCN(OC)C(=O)c1n[nH]c2c1CN(C(=O)Nc1cccc(Cl)c1)CC2	< 100 nM
CN(OCCO)C(=O)c1n[nH]c2c1CN(C(=O)Nc1cccc(Cl)c1)CC2	< 500 nM
CN(OCC1CC1)C(=O)c1n[nH]c2c1CN(C(=O)Nc1cccc(Cl)c1)CC2	< 500 nM
COCCON(C)C(=O)c1n[nH]c2c1CN(C(=O)Nc1cccc(Cl)c1)CC2	< 500 nM
CN(O)C(=O)c1n[nH]c2c1CN(C(=O)Nc1cccc(Cl)c1)CC2	< 1000 nM
O=C(Nc1cccc(Cl)c1)N1CCc2[nH]nc(C(=O)N3CCCO3)c2C1	< 500 nM
O=C(Nc1cccc(Cl)c1)N1CCc2[nH]nc(C(=O)N3CC(F)CO3)c2C1 (stereo not given)	< 100 nM
